The values below come from patent US5658925A, “Aminobenzoic acid derivatives” (Eisai Co., Ltd., priority 1993, dated 1997).

In one experiment the target is T1, serotonin 3 (Cavia porcellus, UniProt O70212).
T1 construct: from tissue; host or cells: nonterminal ileum of Hartley male guinea pig
T1 sequence (O70212 20-490): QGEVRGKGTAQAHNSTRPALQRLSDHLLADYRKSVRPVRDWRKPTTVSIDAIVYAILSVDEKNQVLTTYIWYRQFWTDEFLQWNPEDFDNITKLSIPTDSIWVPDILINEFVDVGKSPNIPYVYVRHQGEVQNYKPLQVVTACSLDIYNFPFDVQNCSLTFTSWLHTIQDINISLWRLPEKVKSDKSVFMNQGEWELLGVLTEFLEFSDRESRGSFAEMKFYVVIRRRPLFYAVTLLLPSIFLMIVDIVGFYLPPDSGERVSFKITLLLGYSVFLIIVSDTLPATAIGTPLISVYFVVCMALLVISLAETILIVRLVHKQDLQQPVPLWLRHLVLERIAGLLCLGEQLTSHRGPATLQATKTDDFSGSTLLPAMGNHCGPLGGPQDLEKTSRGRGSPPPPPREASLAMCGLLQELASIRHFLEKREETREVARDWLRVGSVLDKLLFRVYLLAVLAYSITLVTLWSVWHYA
The experiment in a line: Antagonism against 2-methyl-serotonin-induced contraction of ileum (serotonin 3 antagonism). The format is cell-based, guinea pig (Hartley male). To be noted: vs 2-methylserotonin, 30 minutes with test compound, 37° C. The method, then:
[Experimental Example 1] Antagonism against 2-methyl-serotonin-induced contraction of ileum (serotonin 3 antagonism)
This experiment was made according to the method of Sanger et al. [see Eur. J. Pharmacol., 159, 113-124 (1989)]. The nonterminal ileum of a Hartley male guinea pig was suspended in the Krebs solution (37° C.) by applying a load of 0.5 g, and a gaseous mixture comprising 95% of oxygen and 5% of carbon dioxide was passed through the solution. The contraction of the ileum was isometrically determined. After allowing the ileum to stand for one or more hours for stabilization, a solution of a test compound was added to the solution, and after 30 minutes, 2-methylserotonin was noncumulatively added. The pA2 value was calculated from the rightward shift of the dose-response curve of the 2-methylserotonin-induced contraction caused by the test compound according to the method of Rossum et al. [see Arch. Int. Pharmacodyn. 143, 299(1963)]. BRL 24924 (Renzapride) was used as a control in this experiment.
The structural formula of BRL 24924 is as follows: [drawing 19]

The test system of experiment [1] is cisplatin-induced vomiting. The experiment in a line: Activity against cisplatin-induced vomiting of beagle. The conditions noted are these: through the vein of forefoot, one hour after 3 mg/kg cisplatin, 5-hour period. The format is in vivo. The method, then: [Experimental Example 2] Activity against cisplatin-induced vomiting of beagle
Beagles weighing 7 to 12 kg were used. 3 mg/kg of cisplatin (a product of Sigma) (1 ml/kg of physiological saline) was administered to each beagle through the vein of one of its forefeet. One hour after the administration, physiological saline (0.2 ml/kg) was administered to a control group of beagles and a solution of a test compound in physiological saline was administered to a test group of beagles, each through the vein of the other forefoot. The frequency of vomiting observed over a 5-hour period from the administration of cisplatin was recorded and the inhibitory ratio of the test compound was calculated according to the following formula.

In experiment [2] the test system is gastric emptying function. The experiment in a line: Activity for increasing gastric emptying function. Type of experiment: in vivo, rat (Fischer male). To be noted: oral, one hour before test food, *: minimum effective dose. The method, then:
[Experimental Example 3] Activity for increasing gastric emptying function
This experiment was made according to the method of Decktor et al. [see Eur. J. Pharmacol., 147, 313-316 (1988)]. Fischer male rats (weight: 160 to 180 g) were fasted for 18 hours before 3 ml of a test food comprising methylcellulose, beef bouillon, casein, sugar and corn starch was orally administered to each rat. One hour after the administration, the stomach was extirpated from each rat. The gastric emptying ratio was calculated from the weight of the test food remaining in the stomach. The percentage increment of the gastric emptying function was determined by comparing the gastric emptying ratio of a medicated rat with that of a control rat. Each test compound (5 ml/kg) was orally administered one hour before the administration of the test food. BRL 24924 was used as a control in this experiment.

A further experiment deals with T2, serotonin 4 (Rattus norvegicus, UniProt Q62758).
T2 construct: The esophagus of a rat was extirpated and freed from the outer tunica propria to obtain the muscular layer of mucosa; from tissue; host or cells: muscular layer of mucosa of rat esophagus
T2 sequence (Q62758 whole entry): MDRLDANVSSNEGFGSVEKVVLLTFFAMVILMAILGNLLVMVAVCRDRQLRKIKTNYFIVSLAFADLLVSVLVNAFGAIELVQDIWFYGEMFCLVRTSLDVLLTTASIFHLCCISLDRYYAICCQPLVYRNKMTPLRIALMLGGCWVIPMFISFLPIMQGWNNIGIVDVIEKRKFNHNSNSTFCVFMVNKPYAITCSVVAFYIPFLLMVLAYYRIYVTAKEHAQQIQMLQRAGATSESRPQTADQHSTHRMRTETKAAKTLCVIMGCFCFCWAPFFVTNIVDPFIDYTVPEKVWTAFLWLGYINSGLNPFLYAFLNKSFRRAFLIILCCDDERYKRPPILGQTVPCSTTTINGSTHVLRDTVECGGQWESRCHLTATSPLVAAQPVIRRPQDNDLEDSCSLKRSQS
The experiment in a line: Effect of relaxing the contraction of muscular layer of esophageal mucosa of rat by stimulation with carbachol (activity of serotonin 4 as agonist). Type of experiment: cell-based. The method, then: This experiment was made according to the method of Baxter et al. [see Naunyn-Schmiedeberg's Arch. […] The esophagus of a rat was extirpated and freed from the outer tunica propria to obtain the muscular layer of mucosa. […] A load of 0.5 g was applied to each sample and the reaction was recorded isometrically. 1 μM of carbachol was added to each sample to cause contraction, followed by the cumulative addition thereto of a solution of a test compound. The effect of the test compound was determined as the ratio (%) of relaxation based on the maximum contraction caused by carbachol.

Setting [3] is: guinea pig nonterminal ileum, read-out: pA2 (converted).
Where [4] appears, read: 50% relaxation of maximum contraction caused by 1 μM carbachol, cumulative addition, 37° C., read-out: Effect of relaxing the muscular layer of esophageal mucosa of rat EC50.
The mark [5] stands for this setting: pA2, guinea pig nonterminal ileum.

Counter-ions that a name gives are not always drawn. Like-named read-outs stand apart in the source and are kept apart here. A value given as a limit tells only on which side of the number the result lay.

As a reminder, the EC50 is the concentration giving half of the maximal effect. Take `CC#C[C@H](C)Oc1cc(N)c(Cl)cc1C(=O)NC1CCN2CCOC1C2` (single isomer, unassigned) [20 fraction 1]: the Kb at serotonin 3 (setting [3]) is 63.1 nM. Besides, the “Inhibitory ratio against cisplatin-induced vomiting (%)” value (shortened to “Inhibitory ratio … (%)”) in experiment [1] (0.1 mg/kg) was found to be 22%. The “Percentage increment of gastric emptying function (%)” value (“Percentage increment … (%)” below) in experiment [2] (0.01 mg/kg) is reported as 3.9%; in experiment [2] (0.03 mg/kg), 8.9%; in experiment [2] (0.1 mg/kg) it was 22.9%; in experiment [2] (0.3 mg/kg), 11.5%. On serotonin 4 (setting [4]), the EC50 turned out to be 60 nM.
In the case of `CC#C[C@H](C)Oc1cc(N)c(Cl)cc1C(=O)NC1CCN2CCOC1C2` (single isomer, unassigned) [20 fraction 2], at serotonin 3 (setting [3]), the Kb is 12.6 nM. Moreover, the “Inhibitory ratio … (%)” value in experiment [1] (0.03 mg/kg) was determined as 14%; in experiment [1] (0.1 mg/kg), 24%. The “Percentage increment … (%)” value is 14.0% in experiment [2] (0.03 mg/kg), 23.3% in experiment [2] (0.1 mg/kg) and 21.8% in experiment [2] (0.3 mg/kg). Besides, the EC50 at serotonin 4 (setting [4]) amounted to 33 nM.
As for `CC#C[C@H](C)Oc1cc(N)c(Cl)cc1C(=O)NC1CC2CC(OC)C(C1)N2C` (single isomer, unassigned) [28 fraction 1], the EC50 on serotonin 4 (setting [4]) is over 10000 nM.
On the same count and under the same terms, as for `CC#C[C@H](C)Oc1cc(N)c(Cl)cc1C(=O)NC1CC2CC(OC)C(C1)N2C` (single isomer, unassigned) [28 fraction 2], the figure is over 10000 nM.
`CC#C[C@H](C)Oc1cc(N)c(Cl)cc1C(=O)NC1CCN2CCCC1C2` (single isomer, unassigned) [31 fraction 1]: on serotonin 3 (setting [3]), the Kb was 63.1 nM. Further, the entries for the “Percentage increment … (%)” value in experiment [2] (0.03 mg/kg), in experiment [2] (0.1 mg/kg) and in experiment [2] (0.3 mg/kg) were 0.8%, 0.8% and 14.1%, respectively. Moreover, the EC50 at serotonin 4 (setting [4]) was 44 nM.
For `CC#C[C@H](C)Oc1cc(N)c(Cl)cc1C(=O)NC1CCC2CCC1N2C` (single isomer, unassigned) [53 fraction 2-1], the Kb on serotonin 3 (setting [5]) was 2.51 nM. Also, the “Percentage increment … (%)” value in experiment [2] (0.01 mg/kg) is reported as 14.4%; in experiment [2] (0.03 mg/kg) it was 22.2%; in experiment [2] (0.1 mg/kg) it was 26.7%; in experiment [2] (0.3 mg/kg), 29.0%. Also, at serotonin 4 (setting [4]), the EC50 worked out at 300 nM.
Turning to `CC#C[C@H](C)Oc1cc(N)c(Cl)cc1C(=O)NC1CCC2CCC1N2C` (single isomer, unassigned) [53 fraction 2-2], at serotonin 3 (setting [5]), the Kb is 12.6 nM. Besides, the results for the “Percentage increment … (%)” value in experiment [2] (0.03 mg/kg), in experiment [2] (0.1 mg/kg) and in experiment [2] (0.3 mg/kg) were 6.6%, 21.3% and 28.8%, respectively. In addition, at serotonin 4 (setting [4]), the EC50 was found to be 180 nM.
On to `CC#C[C@H](C)Oc1cc(N)c(Cl)cc1C(=O)NC1CCC2CCC1N2C` (single isomer, unassigned) [53 fraction 2], for which the “Percentage increment … (%)” value in experiment [2] (0.1 mg/kg) stood at 14.4%; in experiment [2] (0.3 mg/kg) it was 16.1%. In addition, the EC50 on serotonin 4 (setting [4]) was 310 nM.
For the molecule `CC#C[C@H](C)Oc1cc(N)c(Cl)cc1C(=O)NC1CC2COCC(C1)N2C` (some centres unmarked) [Example 2], the “Inhibitory ratio … (%)” value in experiment [1] (0.03 mg/kg) is 14%; in experiment [1] (0.1 mg/kg) it was 53%. Moreover, the “Percentage increment … (%)” value in experiment [2] (0.01 mg/kg) is recorded as 20.5%; in experiment [2] (0.03 mg/kg) it was 19.7%; in experiment [2] (0.1 mg/kg) it was 19.8%; in experiment [2] (0.3 mg/kg) it was 30.6%. Further, a half-maximal response on serotonin 4 (EC50) required 82 nM.
In the case of `CC#C[C@H](C)Oc1cc(N)c(Cl)cc1C(=O)NC1CC2CCCC(C1)N2C` (some centres unmarked) [Example 4, hydrochloride], the EC50 on serotonin 4 (setting [4]) stood at 1300 nM.
For the molecule `CC#C[C@H](C)Oc1cc(N)c(Cl)cc1C(=O)NC1CCN2CCCC1C2` (stereo partly drawn) [Example 6, N-(1-Azabicyclo[3.3.1]non-4α-yl)-4-amino-5-chloro-2-((S-1-methyl-2-butynyl/oxybenzamide hydrochloride], on serotonin 3 (setting [3]), the Kb was 20 nM. Besides, the “Inhibitory ratio … (%)” value in experiment [1] (0.1 mg/kg) was found to be 77%. Moreover, the EC50 at serotonin 4 (setting [4]) is 110 nM.
Consider `CC#C[C@H](C)Oc1cc(N)c(Cl)cc1C(=O)NC1CCN2CCOC1C2` (stereo partly drawn) [Example 15, N-(4-Oxa-1-azabicyclo[3.3.1]non-6α-yl)-4-amino-5-chloro-2-((S)-1-methyl-2-butynyl/oxybenzamide hydrochloride], for which the “Percentage increment … (%)” value in experiment [2] (0.1 mg/kg) stood at 24.6%; in experiment [2] (0.3 mg/kg) it was 30.6%. In addition, the EC50 at serotonin 4 (setting [4]) was 35 nM.
For `CC#C[C@H](C)Oc1cc(N)c(Cl)cc1C(=O)NC1CC2CN(C)CC(C1)N2C` (stereo partly drawn) [Example 19, (S)-N-(3,9-Dimethyl-3,9-diazabicyclo[3.3.1]non-7α-yl)-4-amino-5-chloro-2-(1-methyl-2-butynyl/oxybenzamidedihydrochloride], the EC50 on serotonin 4 (setting [4]) is over 10000 nM.
As for `CC#C[C@H](C)Oc1cc(N)c(Cl)cc1C(=O)NC1CC2CCC(C1)N2` (some centres unmarked) [Example 29], the EC50 at serotonin 4 (setting [4]) was over 10000 nM.
On the same count and under the same terms, the figure for `CC#C[C@H](C)Oc1cc(N)c(Cl)cc1C(=O)NC1C2CCC1CN(C)C2` (stereo partly drawn) [Example 35, (S)-N-(3-Methyl-3-azabicyclo[3.2.1]oct-8α-yl) -4-amino-5-chloro-2-(1-methyl-2-butynyl)oxybenzamide hydrochloride] is 2000 nM; for `CC#CC(CCOCC)Oc1cc(N)c(Cl)cc1C(=O)NC1CC2CCC(C1)N2C` (stereo not drawn) [Example 42, N-(8Methyl-8-azabicylo[3.2.1]oct-3α-yl)-4-amino-5-chloro-2-(1-ethoxyethyl-2-butynyl]oxybenzamide hydrochloride] it is 6200 nM.
Molecule `CC#C[C@H](C)Oc1cc(N)c(Cl)cc1C(=O)NC1C2CN(C)CC1CN(C)C2` (stereo partly drawn) [Example 44, (S)-N-(3,7-Dimethyl-3,7-diazabicyclo[3.3.1]non-9-yl)-4-amino-5-chloro-2-(1-methyl-2-butynyl)oxybenzamide hydrochloride] gave an EC50 at serotonin 4 of 110 nM.
Take `CC#C[C@H](C)Oc1cc(N)c(Cl)cc1C(=O)NC1CC2CC(OCC)CC(C1)N2C` (stereo partly drawn) [Example 50, (S)-N-(3-Ethoxy-9-methyl-9-azabicyclo[3.3.1]-1non-9α- or 9β-yl)-4-amino-5-chloro-2-(1-methyl-2-butynyl)oxybenzamide hydrochloride]: the EC50 on serotonin 4 (setting [4]) is over 10000 nM.
Still for that read-out and setting: as for `CC#C[C@H](C)Oc1cc(N)c(Cl)cc1C(=O)NC1C2CC3CC1CN(C3)C2` (stereo partly drawn) [Example 55, (S)-N-(1-Azatricyclo[3.3.1.1^3,7]dec-10-yl)-4-amino-5-chloro-(1-methyl-2-butynyl)oxybenzamide hydrochloride], the figure is 640 nM.
